The data set in a line: Human HepG2 cell viability assay in 384 well format. Set-up: dose 125 nL, time 70.5 hour; cytotoxicity at 70.5 h: concentration not given beside the values. Particulars: HepG2 cells, read-out: Inhibition. Format: toxicity, cell-based.
Consider `Cc1nccn1C1CCCN(C(=O)c2cnc[nH]2)C1` (centres undefined), for which the cytotoxicity at 70.5 h is -0.305%. In the case of `O=C(c1ccsc1)N1CCC2(CCN2Cc2ccc(F)cc2)C1` (centres undefined), the cytotoxicity at 70.5 h was -8.12%. As for `Cc1nccc(CNC(=O)N(CCCO)C2CCc3ccccc32)n1` (centres undefined), the cytotoxicity at 70.5 h stood at 30.5%. As for `COc1cc(C)nc(N2CCN(C(=O)CCc3ccsc3)CC2)n1`, the cytotoxicity at 70.5 h is -4.26%.

Consider `O=C(C1CCCC1)N1CCC(c2ccnc(Nc3cnccn3)n2)C1` (centres undefined), for which the cytotoxicity at 70.5 h worked out at 15%. With `N#Cc1ccc(SCCCO)c(F)c1`, the cytotoxicity at 70.5 h was -5.69%.

For `CCn1cc(CNc2ccc(N(C)CCOC)cn2)cn1`, the cytotoxicity at 70.5 h was -2.51%. With `CCN1CCCN(c2ncccc2C(=O)N2CCCCC2)CC1` the figure was 9.71%. For `CN(C)c1cc(CNC(=O)C2COc3ccccc3O2)ccn1` (centres undefined), the cytotoxicity at 70.5 h is -6.63%. For `Cc1ccsc1C(Cc1ccccc1)NC(=O)CNC(=O)C1CC1` (centres undefined), the cytotoxicity at 70.5 h is -3.91%. As to `CS(=O)(=O)N1CCN(C(=O)c2ccco2)[C@H]2CS(=O)(=O)C[C@H]21`, the cytotoxicity at 70.5 h worked out at 15.1%. `Cc1csc(C2CCCCN2C(=O)c2cnn3ccc(C)nc23)n1` (centres undefined): the cytotoxicity at 70.5 h is -18.6%. For the compound `COCCNc1ccc(CNC(=O)Nc2cn[nH]c2)cc1`, the cytotoxicity at 70.5 h is -16.6%. For the compound `CCOc1ccc(Cl)c(C(=O)NC(C(N)=O)c2ccccc2)n1` (centres undefined), the cytotoxicity at 70.5 h came to 14.2%. For the compound `COC(=O)CSCc1nc(-c2ccc(Cl)cc2)no1`, the cytotoxicity at 70.5 h was found to be 11%.

For `Cc1cc(N(C)CCCn2cccn2)nc(-c2cccnc2)n1`, the cytotoxicity at 70.5 h came out at 11.2%. In the case of `O=C(C1CCC2(CCN(c3nncs3)CC2)CO1)N1CCCC1` (centres undefined), the cytotoxicity at 70.5 h was -1.78%. For `CCc1nc(CC(=O)N2CCn3c(nnc3C(F)(F)F)C2)cs1`, the cytotoxicity at 70.5 h is -7.01%. For `COCC(=O)NC(c1ccc(Cl)cc1)c1noc(C)n1` (centres undefined), the cytotoxicity at 70.5 h was -2.49%. The figure for `C=C(C)CN1CCCC(CNS(C)(=O)=O)C1` (centres undefined) is -4.35%. With `c1cncc(CN2CCC(c3n[nH]c(C4CC4)n3)CC2)c1`, the cytotoxicity at 70.5 h was determined as 33.7%. Consider `Cc1cc(C)c2ncn(CCC(C)O)c(=O)c2c1` (centres undefined), for which the cytotoxicity at 70.5 h was -5.19%. For the compound `CC(C)n1nc2c(cc1=O)CN(CC(=O)N(C)c1nccs1)CC2`, the cytotoxicity at 70.5 h worked out at 6.02%. The figure for `CN1C(=O)[C@H]2CC[C@@H]1CN(C(=O)Nc1cccc3ccccc13)C2` is -6.28%; for `COc1ccc(C2=NOC(CO)C2)cc1` (centres undefined) it is -14.5%. Take `CC(=O)N1CCC(c2nccnc2CNC(=O)c2cc[nH]n2)CC1`: the cytotoxicity at 70.5 h is -4.85%. With `CC(NC1CCN(CC(=O)N(C)C)CC1)c1cnn(C(C)C)c1` (centres undefined) the figure was -14.3%; with `CCC(C)(CC(=O)OC)NCc1c(C)noc1C` (centres undefined), -4.55%; with `CC(C)n1[nH]c(=O)c2c1NC(=O)CC2c1ccc2ncccc2c1` (centres undefined), 5.19%. On to `CN(C)C(=O)NC1COC2(CCN(Cc3ccc(Cl)c(F)c3)CC2)C1` (centres undefined), for which the cytotoxicity at 70.5 h was -8.77%. Take `Cn1c(=O)c2c(n3ncnc13)NC(=O)CC2c1ccc(F)cc1` (centres undefined): the cytotoxicity at 70.5 h was -11.1%. Consider `O=C(CCC(F)(F)F)N1CCCC2(CCC(=O)N(CC3CC3)C2)C1` (centres undefined), for which the cytotoxicity at 70.5 h is -15.8%. With `Cc1n[nH]c(=O)c2c(NC(=O)CN3CCOC(C)C3)oc(C)c12` (centres undefined) the figure was 12.5%.

For `O=C(CC1CC1)NCc1cn2c(n1)CN(Cc1nccs1)CC2`, the cytotoxicity at 70.5 h was -6.29%. The figure for `CCN(C(C)=O)C1CCN(c2nccc(CCC(F)(F)F)n2)C1` (centres undefined) is -22.6%; for `CN(Cc1cc(F)cc2cccnc12)CC1CCN(CCO)CC1` it is -8.39%; for `NC(=O)c1nc(CN2CCOC(C(F)(F)F)C2)no1` (centres undefined) it is 11.5%. Turning to `COC(=O)C(NC(=O)CCOC(C)C)c1cc(F)ccc1F` (centres undefined), the cytotoxicity at 70.5 h was 18.1%. With `O=C1CCC2(CCCN(C(=O)c3cnccn3)CC2)N1` (centres undefined) the figure was 1.43%.

In the case of `CNc1ncc(CN(C)c2ncnc3onc(C)c23)cn1`, the cytotoxicity at 70.5 h came out at 8.52%. Take `Cc1cc(-c2cnn(CCNC(=O)C3CCCO3)c2C2CC2)on1` (centres undefined): the cytotoxicity at 70.5 h is -9.36%. Consider `COCC(=O)N1CCO[C@H]2[C@H](OCc3cccnc3)CC[C@@H]21`, for which the cytotoxicity at 70.5 h came out at 1.22%. The figure for `c1ccc(N2CCC(OCC3CCCCO3)CC2)nc1` (centres undefined) is 0.314%; for `O=C(CN1CCCc2cc(F)cc(F)c21)Nc1ccc(Br)cn1` it is -3.51%. Regarding `CC(Cn1cccn1)NC(=O)NCc1ccc(S(C)(=O)=O)cc1` (centres undefined), the cytotoxicity at 70.5 h was 11.7%.

In the case of `CC(C)CN1CCC(NC(=O)c2ccc(Cl)cc2Cl)CC1`, the cytotoxicity at 70.5 h was -1.21%.

As to `Cc1nc(CN2C[C@@H]3CN(C(=O)c4ccoc4C)C[C@@H]3C2=O)cs1`, the cytotoxicity at 70.5 h was -10%.

Turning to `COc1ccc(OC)c2c(C)cc(N(C)Cc3cc(C)on3)nc12`, the cytotoxicity at 70.5 h worked out at 23.1%.

For `Cc1cc(NC(=O)CCN2CCn3c(nnc3C3CC3)C2)no1`, the cytotoxicity at 70.5 h is -11.7%.

For the compound `CN(CC(=O)Nc1nncs1)CC1CCCN1c1cccnn1` (centres undefined), the cytotoxicity at 70.5 h is 4.97%. `CNC(=O)C1CCN(c2cc(C3CCNCC3)nc(C)n2)C1` (centres undefined): the cytotoxicity at 70.5 h was -19.2%.

As to `Cc1cc(C)c(CNC(=O)N2CCCN(C(=O)C(C)C)CC2)c(C)c1`, the cytotoxicity at 70.5 h was 15.9%. In the case of `CC(C)c1nccn1C(C)C(=O)NC1CCOCC1` (centres undefined), the cytotoxicity at 70.5 h came out at 2.76%.

Consider `Cn1c(C(F)(F)F)nn(CCNC(=O)CSCc2ccccc2)c1=O`, for which the cytotoxicity at 70.5 h came to 0.995%. Turning to `CC(C)(C)C(=O)NCC(=O)NCCc1nc(C(F)(F)F)cs1`, the cytotoxicity at 70.5 h was -9.84%.

On to `CC(C)c1ccc(CS(=O)(=O)Cc2nc(N)nc(N(C)C)n2)cc1`, for which the cytotoxicity at 70.5 h was -6.09%. On to `CC(C)(C)c1nc(NS(=O)(=O)c2cccc(F)c2)no1`, for which the cytotoxicity at 70.5 h is -8.66%. Regarding `CCC(C)[C@H](NC(=O)c1cc(Br)ccc1-n1cnnn1)C(=O)OC` (some centres undefined), the cytotoxicity at 70.5 h was determined as 42%.

Consider `CN1CC2(COCCN(C(=O)c3ccco3)C2)OCC1=O` (centres undefined), for which the cytotoxicity at 70.5 h worked out at 6.17%. The figure for `COc1cc(COCC2CCN(Cc3cccnc3)CC2)cc(OC)c1` is -1.2%; for `O=S(=O)(c1cccs1)N1CCN2C[C@H](OCC3CC3)C[C@H]2C1` it is -3.74%. `CC(NC(=O)N(C)Cc1ccsc1)c1ccc2c(c1)CCC(=O)N2` (centres undefined): the cytotoxicity at 70.5 h was -3.94%. Regarding `CCc1cc(C(=O)N2CCC(C3CCN(c4ncccn4)CC3)C2)on1` (centres undefined), the cytotoxicity at 70.5 h is 2.57%.

Regarding `C[C@@H]1CN(C(=O)CCN2CCOCC2)CC[C@]1(C)O`, the cytotoxicity at 70.5 h is -2.33%. As for `COc1ccc(NC(=O)c2nc(C)sc2C)cn1`, the cytotoxicity at 70.5 h was 28%. Consider `CCCC1SCCN1C(=O)c1ccc(-n2ncc(C#N)c2N)cc1` (centres undefined), for which the cytotoxicity at 70.5 h is -3.53%.

`O=C(NCC1COCc2c(-c3cccnc3)nnn2C1)c1cccs1` (centres undefined): the cytotoxicity at 70.5 h was -15.7%. In the case of `Cn1c(N2CC[C@H](O)C2)nc2cc(C(N)=O)ccc21`, the cytotoxicity at 70.5 h turned out to be 5.31%.

Take `O=S(=O)(Cc1cccc2cccnc12)NC(CO)c1ccco1` (centres undefined): the cytotoxicity at 70.5 h is -9.35%.

In the case of `CC(=O)NCc1cc2n(n1)CCN(Cc1cccc(Cl)c1Cl)C2`, the cytotoxicity at 70.5 h came to 0.275%. Consider `CCSC1=Nc2c(cnn2-c2ccc(Cl)cc2)C2=NCCCN12`, for which the cytotoxicity at 70.5 h is -7.4%.

`CC(Nc1nc2c(cnn2C)c(=O)[nH]1)c1ccc(F)cc1` (centres undefined): the cytotoxicity at 70.5 h was -2.55%. `CN(C)C(C(=O)NCC1(C)COC1)c1cccc(F)c1` (centres undefined): the cytotoxicity at 70.5 h is -3.06%.

Regarding `CC(C(=O)Nc1nccs1)N1CCc2nn(C)c(=O)cc2C1` (centres undefined), the cytotoxicity at 70.5 h came to 20.7%. As for `CCc1nc(C2CCCN2CCS(=O)(=O)c2ccccc2)no1` (centres undefined), the cytotoxicity at 70.5 h was -1.81%. `CC(N1CCN(C(=O)NCc2cccc(C#N)c2)CC1)C(F)(F)F` (centres undefined): the cytotoxicity at 70.5 h is -0.642%. On to `CS(=O)(=O)NCc1cc2n(n1)CCCN(Cc1cccc(C#N)c1)C2`, for which the cytotoxicity at 70.5 h was -9.28%. Consider `Cc1nc(-c2cccc(C(=O)N(C)C)c2)cs1`, for which the cytotoxicity at 70.5 h came to 1.56%.

With `Cc1noc(C2CCCN(C(=O)c3cncc(Br)c3)C2)n1` (centres undefined), the cytotoxicity at 70.5 h was -10.8%. With `O=C(NCc1cc2n(n1)CCCN(Cc1ccc(CO)o1)C2)C1CCC1`, the cytotoxicity at 70.5 h amounted to 18.2%. For the compound `O=C(C1CC=CC1)N1CCc2c(COCc3ccncc3)cncc2C1`, the cytotoxicity at 70.5 h was -10.9%. In the case of `Cc1ccc(F)cc1NC(=O)C1CCCN1C(=O)C(C)C` (centres undefined), the cytotoxicity at 70.5 h was -5.39%. As for `CS(=O)(=O)NC[C@H]1OC[C@@H]2CCN(C(=O)c3cccnc3)C[C@@H]21`, the cytotoxicity at 70.5 h was -0.643%.

Consider `O=C(O)c1cncc(Cc2cccc(F)c2)c1`, for which the cytotoxicity at 70.5 h was -7.96%.

Consider `O=C1N(CC2CCC2)CCCC12CCN(S(=O)(=O)c1cccnc1)C2` (centres undefined), for which the cytotoxicity at 70.5 h is -4.23%.

Consider `CC(=O)N1CCS(=O)(=O)[C@@H]2CCN(S(=O)(=O)CC(C)C)CC[C@@H]21`, for which the cytotoxicity at 70.5 h was -6.44%.

With `N#Cc1cccc(N2CCC3(CCC(=O)N(CCCO)C3)CC2)n1`, the cytotoxicity at 70.5 h is -9.82%. Turning to `CC(C)CC(NC(=O)c1ccn(C)c(=O)c1)c1cccs1` (centres undefined), the cytotoxicity at 70.5 h amounted to 33.9%. The figure for `O=C(Nc1ccc(-c2csnn2)cc1)NC(CCO)C1CC1` (centres undefined) is 18%; for `CC(=O)NCc1cc2n(n1)CCN(Cc1ccccc1OC(F)(F)F)C2` it is -3.35%.

Regarding `CCn1ccnc1CN1CCN(CC(=O)NC2CCOCC2)CC1`, the cytotoxicity at 70.5 h turned out to be 25.6%. As to `CCOC(=O)N1CCN(C(=O)c2cc(-c3ccc(Cl)cc3Cl)on2)CC1`, the cytotoxicity at 70.5 h came to 0.435%. The figure for `CCc1ccc(C(=O)N2CCCC2c2nnc3n2CCCCC3)o1` (centres undefined) is 3.58%; for `O=C(NCc1nn(-c2ccccc2)c2c1CCC2)NC1CC1` it is -19%. Take `CC1N(c2cnn(C)c2)C(=O)COC12CCN(Cc1ccoc1)CC2` (centres undefined): the cytotoxicity at 70.5 h is 2.62%. Turning to `CC(C)n1ccc(C(=O)N2CCCC(n3cncn3)C2)n1` (centres undefined), the cytotoxicity at 70.5 h is -10.6%.

As for `Cc1nc(CNC(=O)Nc2ccc3c(c2)CCCN3C)sc1C`, the cytotoxicity at 70.5 h is -0.336%. With `Cc1nn(C)c(C)c1S(=O)(=O)N1C[C@@H]2C[C@@H](C)O[C@@H]2C1` the figure was -9.76%. For the compound `CCn1c(C)nnc1SCCNC(=O)Cn1cnc2ccccc2c1=O`, the cytotoxicity at 70.5 h was -4.84%.

Values taken from ChEMBL document CHEMBL3507680, “University of Dundee, Gates Library screen for HepG2 cell viability”.
